Common to all, as to type: functional
The subject of assay [1] is Athelia rolfsii. Nature of the assay: Fungitoxic activity against Athelia rolfsii assessed as mycelial growth inhibition at 10 ppm after 3 days. Conditions: Agroathelia rolfsii, 72 h; read-out: GI.
Assay [2] relates to Athelia rolfsii. Nature of the assay: Fungitoxic activity against Athelia rolfsii assessed as mycelial growth inhibition at 100 ppm after 3 days. Conditions: Agroathelia rolfsii, 72 h; read-out: GI.
Assay [3] relates to Pythium. Kind of assay: Fungitoxic activity against Pythium sp. assessed as mycelial growth inhibition at 100 ppm after 3 days. Particulars: 72 h, read-out: GI.
Assay [4] deals with Pythium. Nature of the assay: Fungitoxic activity against Pythium sp. assessed as mycelial growth inhibition at 10 ppm after 3 days. Particulars: 72 h, read-out: GI.

For the compound `COC(=O)[C@@H](NC(=O)/C=C/c1ccc(C(C)C)cc1)C(C)C`, the inhibition of growth at 10 ppm in assay [1] was 23%; in assay [4], 14%. In addition, the inhibition of growth at 100 ppm is 63% in assay [2] and 74% in assay [3].
In the case of `CCCOC(=O)[C@H](CC(C)C)NC(=O)/C=C/c1ccccc1`, the inhibition of growth at 100 ppm in assay [2] is 45%; in assay [3], 31%.
For the compound `CCOC(=O)[C@H](CC(C)C)NC(=O)/C=C/c1ccc(C(C)C)cc1`, the inhibition of growth at 100 ppm worked out at 43% in assay [2] and 44% in assay [3].
With `CCCOC(=O)[C@H](C)NC(=O)/C=C/c1ccc(Cl)cc1`, the inhibition of growth at 100 ppm in assay [2] is 38%; in assay [3] it was 21%.
For `CC(C)C[C@H](NC(=O)/C=C/c1ccccc1)C(=O)OC(C)C`, in that order: 41% and 34%.
Consider `CCOC(=O)[C@H](CC(C)C)NC(=O)/C=C/c1ccc(Cl)cc1`, for which, in assay [1], the inhibition of growth at 10 ppm came to 16%. In addition, the inhibition of growth at 100 ppm was 53% in assay [2] and 22% in assay [3].
For the compound `COC(=O)[C@H](CC(C)C)NC(=O)/C=C/c1ccccc1`, the inhibition of growth at 100 ppm in assay [2] came out at 30%; in assay [3], 23%.
For `CCOC(=O)[C@H](Cc1ccccc1)NC(=O)/C=C/c1ccc(C(C)C)cc1`, the inhibition of growth at 100 ppm in assay [2] amounted to 18%; in assay [3], 20%.
Consider `CCCOC(=O)[C@H](CC(C)C)NC(=O)/C=C/c1ccc(Cl)cc1Cl`, for which the inhibition of growth at 100 ppm in assay [2] is 33%; in assay [3], 38%.
For `CCOC(=O)[C@H](C)NC(=O)/C=C/c1ccc(Cl)cc1`, the inhibition of growth at 100 ppm in assay [2] amounted to 47%; in assay [3] it was 27%.
For `COC(=O)[C@H](Cc1ccccc1)NC(=O)/C=C/c1ccc(Cl)cc1`, in that order: 47% and 13%.
Take `COC(=O)[C@H](C)NC(=O)/C=C/c1ccc(C(C)C)cc1`: the inhibition of growth at 100 ppm in assay [2] was 67%; in assay [3], 52%.
On to `CC[C@H](C)[C@H](NC(=O)/C=C/c1ccc(C(C)C)cc1)C(=O)OC`, for which the inhibition of growth at 10 ppm is 41% in assay [1] and 26% in assay [4]. For the same compound, the inhibition of growth at 100 ppm in assay [2] turned out to be 55%; in assay [3], 65%.
Regarding `CC[C@H](C)[C@H](NC(=O)/C=C/c1ccccc1)C(=O)OC`, the inhibition of growth at 100 ppm amounted to 33% in assay [2] and 39% in assay [3].
As for `CCOC(=O)[C@H](C)NC(=O)/C=C/c1ccccc1`, the figures for the inhibition of growth at 100 ppm in assay [2] and in assay [3] were 14% and 21%, respectively.
As for `CC[C@H](C)[C@H](NC(=O)/C=C/c1ccc(Cl)cc1Cl)C(=O)OC`, the inhibition of growth at 100 ppm in assay [2] came out at 48%; in assay [3], 59%. For the same compound, the inhibition of growth at 10 ppm in assay [4] worked out at 18%.
Consider `CCOC(=O)[C@H](CC(C)C)NC(=O)/C=C/c1ccccc1`, for which the inhibition of growth at 100 ppm was 40% in assay [2] and 16% in assay [3].
Regarding `CCOC(=O)[C@H](Cc1ccccc1)NC(=O)/C=C/c1ccccc1`, the inhibition of growth at 10 ppm in assay [1] was found to be 27%. Also, the inhibition of growth at 100 ppm was 62% in assay [2] and 26% in assay [3].
`CCOC(=O)[C@@H](NC(=O)/C=C/c1ccc(Cl)cc1Cl)C(C)C`: the inhibition of growth at 100 ppm in assay [2] was 47%; in assay [3], 68%. In addition, the inhibition of growth at 10 ppm in assay [4] was determined as 19%.
`CCCOC(=O)CNC(=O)/C=C/c1ccc(Cl)cc1Cl`: the inhibition of growth at 100 ppm in assay [2] worked out at 28%; in assay [3], 40%.
`CCOC(=O)[C@H](Cc1ccccc1)NC(=O)/C=C/c1ccc(Cl)cc1`: the figures for the inhibition of growth at 100 ppm in assay [2] and in assay [3] were 22% and 15%, respectively.
`COC(=O)[C@H](Cc1ccccc1)NC(=O)/C=C/c1ccc(C(C)C)cc1`: the inhibition of growth at 10 ppm in assay [1] amounted to 28%; in assay [4] it was 8%. The inhibition of growth at 100 ppm in assay [2] is 52%; in assay [3], 57%.
For `CC(C)OC(=O)CNC(=O)/C=C/c1ccc(C(C)C)cc1`, in that order: 37%, 11%, 79% and 70%.
For `CC(C)OC(=O)CNC(=O)/C=C/c1ccccc1` [ISOPROPYL 2-CINNAMAMIDOACETATE], in assay [1], the inhibition of growth at 10 ppm worked out at 15%. The inhibition of growth at 100 ppm in assay [2] was determined as 61%; in assay [3], 42%.
Regarding `COC(=O)[C@H](C)NC(=O)/C=C/c1ccccc1`, the inhibition of growth at 100 ppm in assay [2] was 25%; in assay [3], 13%.
Take `CC(C)C[C@H](NC(=O)/C=C/c1ccc(Cl)cc1)C(=O)OC(C)C`: the inhibition of growth at 10 ppm worked out at 32% in assay [1] and 7% in assay [4]. For the same compound, the inhibition of growth at 100 ppm in assay [2] is 89%; in assay [3], 70%.
With `COC(=O)[C@H](CC(C)C)NC(=O)/C=C/c1ccc(C(C)C)cc1`, the inhibition of growth at 100 ppm came to 35% in assay [2] and 60% in assay [3]. Also, the inhibition of growth at 10 ppm in assay [4] is 6%.
Regarding `CC(C)OC(=O)CNC(=O)/C=C/c1ccc(Cl)cc1`, the inhibition of growth at 10 ppm in assay [1] is 41%; in assay [4], 0%. For the same compound, the inhibition of growth at 100 ppm in assay [2] was 50%; in assay [3] it was 57%.
In the case of `CCOC(=O)[C@@H](NC(=O)/C=C/c1ccccc1)C(C)C`, the inhibition of growth at 100 ppm in assay [2] and in assay [3] was 41% in each case.
For `CCOC(=O)[C@H](Cc1ccccc1)NC(=O)/C=C/c1ccc(Cl)cc1Cl`, the inhibition of growth at 100 ppm was 35% in assay [2] and 18% in assay [3].
Take `CC(C)OP(=O)(OC(C)C)SCc1ccccc1` [IPROBENFOS]: the inhibition of growth at 10 ppm in assay [1] turned out to be 69%; in assay [4] it was 42%. In addition, the figures for the inhibition of growth at 100 ppm in assay [2] and in assay [3] were 100% and 89%, respectively.
With `CCOC(=O)[C@@H](NC(=O)/C=C/c1ccc(Cl)cc1)[C@@H](C)CC`, the results for the inhibition of growth at 10 ppm in assay [1] and in assay [4] were 42% and 0%, respectively. In addition, the inhibition of growth at 100 ppm was found to be 50% in assay [2] and 58% in assay [3].
As for `CCOC(=O)[C@H](C)NC(=O)/C=C/c1ccc(C(C)C)cc1`, the results for the inhibition of growth at 10 ppm in assay [1] and in assay [4] were 27% and 0%, respectively. Further, the inhibition of growth at 100 ppm came to 60% in assay [2] and 63% in assay [3].
As to `CCCOC(=O)[C@H](C)NC(=O)/C=C/c1ccc(Cl)cc1Cl`, the inhibition of growth at 10 ppm in assay [1] was determined as 14%; in assay [4], 0%. For the same compound, the inhibition of growth at 100 ppm in assay [2] amounted to 51%; in assay [3], 61%.
For `CCOC(=O)[C@@H](NC(=O)/C=C/c1ccc(C(C)C)cc1)[C@@H](C)CC`, the inhibition of growth at 100 ppm in assay [2] stood at 45%; in assay [3], 57%. Also, the inhibition of growth at 10 ppm in assay [4] was determined as 23%.
With `CCOC(=O)[C@H](CC(C)C)NC(=O)/C=C/c1ccc(Cl)cc1Cl`, the results for the inhibition of growth at 100 ppm in assay [2] and in assay [3] were 34% and 30%, respectively.
Take `COC(=O)[C@H](C)NC(=O)/C=C/c1ccc(Cl)cc1`: the inhibition of growth at 100 ppm in assay [2] is 44%; in assay [3] it was 26%.
As for `CCOC(=O)[C@@H](NC(=O)/C=C/c1ccc(Cl)cc1Cl)[C@@H](C)CC`, the inhibition of growth at 100 ppm in assay [2] worked out at 47%; in assay [3], 52%. The inhibition of growth at 10 ppm in assay [4] is 20%.
`COC(=O)[C@H](Cc1ccccc1)NC(=O)/C=C/c1ccc(Cl)cc1Cl`: the figures for the inhibition of growth at 100 ppm in assay [2] and in assay [3] were 46% and 38%, respectively.
For the compound `CC(C)C[C@H](NC(=O)/C=C/c1ccc(Cl)cc1Cl)C(=O)OC(C)C`, the inhibition of growth at 100 ppm in assay [2] turned out to be 39%; in assay [3], 42%.
Turning to `CCCOC(=O)CNC(=O)/C=C/c1ccccc1` [PROPYL 2-CINNAMAMIDOACETATE], the inhibition of growth at 10 ppm in assay [1] was 26%. Besides, the inhibition of growth at 100 ppm in assay [2] came out at 53%; in assay [3] it was 47%.
Regarding `COC(=O)[C@H](CC(C)C)NC(=O)/C=C/c1ccc(Cl)cc1`, the inhibition of growth at 100 ppm in assay [2] was found to be 50%; in assay [3] it was 32%.
Regarding `COC(=O)[C@H](C)NC(=O)/C=C/c1ccc(Cl)cc1Cl`, the inhibition of growth at 100 ppm turned out to be 49% in assay [2] and 55% in assay [3].
As to `CCCOC(=O)[C@H](CC(C)C)NC(=O)/C=C/c1ccc(C(C)C)cc1`, the results for the inhibition of growth at 100 ppm in assay [2] and in assay [3] were 46% and 43%, respectively.
For the compound `COC(=O)[C@H](CC(C)C)NC(=O)/C=C/c1ccc(Cl)cc1Cl`, the inhibition of growth at 100 ppm in assay [2] is 42%; in assay [3], 55%. In addition, the inhibition of growth at 10 ppm in assay [4] amounted to 12%.
As for `COC(=O)[C@@H](NC(=O)/C=C/c1ccccc1)C(C)C`, the inhibition of growth at 100 ppm stood at 29% in assay [2] and 33% in assay [3].
For the compound `CCOC(=O)[C@@H](NC(=O)/C=C/c1ccccc1)[C@@H](C)CC`, the inhibition of growth at 100 ppm in assay [2] amounted to 30%; in assay [3], 49%.
`CCCOC(=O)[C@H](C)NC(=O)/C=C/c1ccccc1`: the inhibition of growth at 100 ppm in assay [2] was 48%; in assay [3], 33%.
As to `CCCOC(=O)[C@H](CC(C)C)NC(=O)/C=C/c1ccc(Cl)cc1`, the inhibition of growth at 10 ppm in assay [1] amounted to 25%. Further, the values for the inhibition of growth at 100 ppm in assay [2] and in assay [3] were 56% and 38%, respectively.
`COC(=O)[C@H](Cc1ccccc1)NC(=O)/C=C/c1ccccc1`: the inhibition of growth at 100 ppm in assay [2] amounted to 49%; in assay [3], 37%.
For `CCOC(=O)[C@@H](NC(=O)/C=C/c1ccc(Cl)cc1)C(C)C`, in that order: 47% and 54%.
As to `CCCOC(=O)CNC(=O)/C=C/c1ccc(Cl)cc1`, in assay [1], the inhibition of growth at 10 ppm was 35%. For the same compound, the figures for the inhibition of growth at 100 ppm in assay [2] and in assay [3] were 56% and 48%, respectively.

The values above are taken from ChEMBL document CHEMBL3046900, “Synthesis and Fungitoxic Activity of N-Cinnamoyl--Amino Acid Esters” (2000).
